Experimental data reported in article PMC8336721 (ACS chemical neuroscience, 2020).
“And” between values parts separate entries of the source, which are not always exact repeats. Identical values can stand only once. Like-named read-outs stand apart in the source and are kept apart here.

How the values were obtained:
mice [1] = experiment: Compound 48/80 scratching test; assay type: in vivo
KOR [2] = target: T1, KOR (Homo sapiens, UniProt P41145); experiment: [35S]GTPγS binding to membranes of CHO cells stably expressing the KOR; assay type: biochemical; conditions: for Maximal Effect, KOR: % of maximal [35S]GTPγS binding of reference full agonist (−)U50,488H
T1 sequence (P41145 whole entry): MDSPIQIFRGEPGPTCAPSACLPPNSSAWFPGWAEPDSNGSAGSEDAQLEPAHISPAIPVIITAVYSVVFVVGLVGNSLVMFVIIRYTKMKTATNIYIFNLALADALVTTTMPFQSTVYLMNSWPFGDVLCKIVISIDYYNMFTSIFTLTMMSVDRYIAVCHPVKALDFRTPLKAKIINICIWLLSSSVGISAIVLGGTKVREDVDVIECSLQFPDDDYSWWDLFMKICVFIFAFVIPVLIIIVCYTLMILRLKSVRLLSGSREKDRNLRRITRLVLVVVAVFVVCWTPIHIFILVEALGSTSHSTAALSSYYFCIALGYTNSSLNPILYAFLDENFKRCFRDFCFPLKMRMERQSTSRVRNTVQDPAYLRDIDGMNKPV

mice [3] = conditions: cited from earlier work
mice [4] = conditions: cited from earlier work; remark: listed apart in the source
KOR [5] = target: T1, KOR; experiment: GloSensor cAMP assay; assay type: cell-based; conditions: for more potent than U50,488H, inhibition of cAMP accumulation: EC50 ratio vs U50,488H
mice [6] = conditions: late phase of the formalin test; cited from earlier work
P-glycoprotein = conditions: cited from earlier work
MOR = MOR (Rattus norvegicus, UniProt P33535); experiment: [35S]GTPγS binding to membranes of CHO cells stably expressing the MOR; assay type: biochemical; conditions: for Maximal Effect, MOR: % of maximal [35S]GTPγS binding of reference full agonist DAMGO; for agonist type at the MOR: [35S]GTPγS binding
Sequence of MOR (P33535 whole entry): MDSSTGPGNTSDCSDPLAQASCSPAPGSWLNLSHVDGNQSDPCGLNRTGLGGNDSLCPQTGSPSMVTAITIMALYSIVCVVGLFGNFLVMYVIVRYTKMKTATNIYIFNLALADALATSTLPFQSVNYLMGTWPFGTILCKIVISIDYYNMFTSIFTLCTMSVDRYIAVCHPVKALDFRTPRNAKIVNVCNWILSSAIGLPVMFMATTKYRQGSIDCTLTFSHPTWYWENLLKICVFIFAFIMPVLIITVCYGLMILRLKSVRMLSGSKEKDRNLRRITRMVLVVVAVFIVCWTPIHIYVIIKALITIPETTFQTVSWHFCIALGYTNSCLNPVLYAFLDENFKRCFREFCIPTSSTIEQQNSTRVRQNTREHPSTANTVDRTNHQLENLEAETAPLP

mice [7] = conditions: nalfurafine up to 20 μg/kg, U50,488 5 mg/kg; cited from earlier work
DOR = DOR (Mus musculus, UniProt P32300); experiment: [35S]GTPγS binding to membranes of CHO cells stably expressing the DOR; assay type: biochemical; conditions: for agonist type at the DOR: [35S]GTPγS binding, relatively low potency
Sequence of DOR (P32300 whole entry): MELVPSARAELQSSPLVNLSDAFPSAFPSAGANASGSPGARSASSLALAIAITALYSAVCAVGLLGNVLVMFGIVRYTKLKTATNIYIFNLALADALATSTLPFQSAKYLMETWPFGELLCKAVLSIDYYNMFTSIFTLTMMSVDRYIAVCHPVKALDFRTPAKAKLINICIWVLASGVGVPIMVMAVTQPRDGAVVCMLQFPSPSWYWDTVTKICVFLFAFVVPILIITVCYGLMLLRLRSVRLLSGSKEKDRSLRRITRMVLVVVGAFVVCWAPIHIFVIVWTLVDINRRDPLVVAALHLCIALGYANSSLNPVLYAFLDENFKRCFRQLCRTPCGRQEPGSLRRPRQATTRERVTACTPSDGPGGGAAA

NOR = NOR (Homo sapiens, UniProt P41146); experiment: [35S]GTPγS binding to membranes of CHO cells stably expressing the NOR; assay type: biochemical; conditions: for agonist type at the NOR: [35S]GTPγS binding, relatively low potency
Sequence of NOR (P41146 whole entry): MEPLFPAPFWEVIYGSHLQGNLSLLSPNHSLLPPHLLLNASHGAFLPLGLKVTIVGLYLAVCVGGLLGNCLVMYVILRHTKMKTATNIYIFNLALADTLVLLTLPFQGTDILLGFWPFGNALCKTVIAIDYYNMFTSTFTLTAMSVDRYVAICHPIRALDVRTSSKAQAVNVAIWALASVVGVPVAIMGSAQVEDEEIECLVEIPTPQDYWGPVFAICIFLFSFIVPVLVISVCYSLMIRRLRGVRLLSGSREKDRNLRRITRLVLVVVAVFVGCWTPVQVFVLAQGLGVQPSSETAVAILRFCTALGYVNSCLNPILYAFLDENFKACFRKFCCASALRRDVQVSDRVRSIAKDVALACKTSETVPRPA

human KOR = experiment: G protein bias from RAi of GloSensor cAMP and Tango assays; assay type: cell-based; conditions: RAi−G divided by RAi−b, U50,488H as balanced agonist
KOR [8] = target: T1, KOR; experiment: Tango assay; assay type: cell-based
mice [9] = experiment: Formalin test; assay type: in vivo; conditions: s.c. 5 min before formalin, licking time phase II
mice [10] = experiment: Novelty-induced locomotor activity; assay type: in vivo; conditions: 1, 3, 5 mg/kg s.c., 0–30 min post-injection
mice [11] = experiment: Conditioned place aversion
mice [12] = experiment: Rotarod test; assay type: in vivo
mouse = mouse tail flick test; cited from earlier work

Oc1ccc2c3c1O[C@H]1c4[nH]c5c(c4C[C@@]4(O)[C@@H](C2)N(CC2CC2)CC[C@]314)C[C@@]1(O)[C@H]2Cc3ccc(O)c4c3[C@@]1(CCN2CC1CC1)[C@H]5O4 [norBNI, nor-binaltorphimine]
effect on compound 48/80-induced scratching, alone (mice [1]; norBNI 20 mg/kg i.p. 20 h before saline): no effects

CN(C(=O)/C=C/c1ccoc1)[C@@H]1CC[C@@]2(O)[C@H]3Cc4ccc(O)c5c4[C@@]2(CCN3CC2CC2)[C@H]1O5 [Nalfurafine]
Maximal Effect, KOR (KOR [2]): 90.90 ± 3.25% | agonist type at the KOR (KOR [2]; [35S]GTPγS binding): full agonists | potency at the KOR higher than that of 42B (KOR [2]; [35S]GTPγS binding EC50 ratio, nalfurafine vs 42B): ~ 250 fold | A50, compound 48/80-induced scratching (mice [3]): 8.0 µg/kg | more potent than 42B in the anti-scratch test (mice [1]; A50 ratio nalfurafine vs 42B): about 340 x | rotarod performance (mice [4]; 20 μg/kg, at 30 min and 40 min following injection): small, yet significant, effects | time of peak effect in rotarod test (mice [4]; slight lowering effect): 30 min | more potent than U50,488H, inhibition of cAMP accumulation (KOR [5]): ~ 9 fold | Emax (KOR [5]; HEK-293T, read-out: GloSensor cAMP assay Emax): 69.8 ± 1.53% | more potent than 42B in inhibition of forskolin-stimulated adenylyl cyclase (Glosensor assay) (KOR [5]; nalfurafine vs 42B): ~ 5 X | A50, formalin test (mice [6]): 5.8 µg/kg | P-glycoprotein substrate (P-glycoprotein): P-glycoprotein substrate | EC50 (MOR): 3.11 ± 0.63 nM | Maximal Effect, MOR (MOR): 73.88 ± 2.93% | agonist type at the MOR (MOR): partial agonists | CPA (mice [7]): did not produce CPA | agonist type at the DOR (DOR): full agonism | Emax (DOR; read-out: Maximal Effect, DOR): 129 ± 3.2% | EC50 (NOR): 280 ± 17.7 nM | agonist type at the NOR (NOR): full agonism | Emax (NOR; read-out: Maximal Effect, NOR): 120 ± 2.2% | G Biased factor (95% CI) (human KOR): 4.49 (1.79–11.1) | G Biased factor (95% CI) (human KOR; listed as nalfurafine): 4.49 | Emax (KOR [8]; HEK293, read-out: Tango assay Emax): 108 ± 2.6%

CN(C(=O)/C=C/c1ccoc1)[C@@H]1CC[C@@]2(O)[C@H]3Cc4cccc5c4[C@@]2(CCN3CC2CC2)[C@H]1O5 [42B]
Maximal Effect, KOR (KOR [2]): 91% and 91.34 ± 1.15% | agonist type at the KOR (KOR [2]; [35S]GTPγS binding): full agonists | EC50 (KOR [2]; read-out: EC50, KOR, [35S]GTPγS binding, CHO membranes, 100 mM NaCl, mean ± SEM n=3–4): 25.6 ± 1.5 nM | effect of norBNI pretreatment on anti-scratch activity (mice [1]; norBNI 20 mg/kg i.p. 20 h before 42B 3 mg/kg): eliminated the anti-scratch activity | A50, compound 48/80-induced scratching (mice [1]; s.c. 20 min before compound 48/80, bouts counted 30 min, mice): 2.82 mg/kg | more potent than U50,488H, inhibition of cAMP accumulation (KOR [5]): ~ 2 fold | GloSensor cAMP assay Emax (KOR [5]; maximal degree of inhibition, mean ± SEM n=3): 74.40±1.68% | EC50 (KOR [5]; read-out: GloSensor cAMP assay EC50, inhibition of cAMP, mean ± SEM n=3): 0.82 ± 0.18 nM | A50, formalin test (mice [9]): 2.08 mg/kg | Maximal Effect, MOR (MOR): 49% and 48.87 ± 2.45% | agonist type at the MOR (MOR): partial agonists | Maximal Effect, DOR (DOR; % of maximal [35S]GTPγS binding of reference full agonist DPDPE): 134.7 ± 3.4% | agonist type at the DOR (DOR): full agonism | agonist type at the NOR (NOR): full agonism | novelty-induced hyperlocomotion (mice [10]): significant and dose-dependent reduction | CPA (mice [11]; 1, 3, 5 mg/kg s.c., 6 days conditioning): did not cause CPA | effect of MOR blockade by naloxone on lack of CPA (mice [11]; naloxone 1 mg/kg s.c. 25 min before 42B 3 mg/kg): did not affect its lack of CPA | lower potency for β-arrestin recruitment than U50,488H (KOR [8]; EC50 ratio vs U50,488H): ~ 2 fold | lower potency for β-arrestin recruitment than nalfurafine (KOR [8]; EC50 ratio vs nalfurafine): ~ 4 fold | EC50 (KOR [8]; read-out: Tango assay EC50, β-arrestin2 recruitment, mean ± SEM n=3): 3.22 ± 0.42 nM | Tango assay Emax (KOR [8]; β-arrestin2 recruitment, mean ± SEM n=3, % printed in b16 only): 116.8±1.0 % | rotarod performance at 1 mg/kg (mice [12]; 1 mg/kg, at 10 min): significant effect | rotarod performance (mice [12]; 1, 3, 5 mg/kg s.c., tested 10, 20, 30, 40 min): dose-dependently caused performance impairment | time of peak effect in rotarod test (mice [12]; among time points tested 10–40 min): 10 min | time of return to control level in rotarod test (mice [12]; mouse, in vivo): 40 min

C=CCN1CC[C@]23c4c5ccc(O)c4O[C@H]2C(=O)CC[C@@]3(O)[C@H]1C5 [naloxone]
more potent in antagonizing morphine- than U50,488- or spiradoline-induced antinociception (mouse): 20–36 times | CPA or CPP in the naloxone experiment (mice [11]; naloxone 1 mg/kg alone, U50,488 5 mg/kg as positive control): Neither naloxone (1 mg/kg) alone nor a combination of naloxone (1 mg/kg) and 42B (3 mg/kg) caused CPA or CPP
